Results on 9 compounds are retold here after US8404709B2, “Substituted 4-aryl-1,4-dihydro-1,6-naphthyridines and use thereof” (Bayer Intellectual Property GmbH, priority 2007, dated 2013).

This assay deals with T1, human mineralocorticoid receptor (MR) (Homo sapiens, UniProt P08235).
T1 construct: expressed in transfected cells; host or cells: CHO K1
T1 sequence (P08235 734-984 limits assumed): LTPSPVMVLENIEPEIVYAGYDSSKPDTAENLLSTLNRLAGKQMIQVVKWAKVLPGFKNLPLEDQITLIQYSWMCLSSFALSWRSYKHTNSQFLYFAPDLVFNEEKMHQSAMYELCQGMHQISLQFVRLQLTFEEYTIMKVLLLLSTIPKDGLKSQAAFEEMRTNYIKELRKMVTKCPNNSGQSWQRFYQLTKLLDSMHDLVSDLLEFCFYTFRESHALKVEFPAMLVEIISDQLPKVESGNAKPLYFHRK
In words: Cellular in vitro assay to determine the inhibitory MR activity (GAL4-MR chimera, luciferase reporter, CHO K1 cells). Conditions: recombinant CHO K1 cells, GAL4-MR ligand-binding domain chimera, agonist aldosterone, luciferase readout. The format is cell-based. The source says:
1. Cellular In Vitro Assay to Determine the Inhibitory MR Activity and MR Selectivity Compared with other Steroid Hormone Receptors
Antagonists of the human mineralocorticoid receptor (MR) are identified, and the activity of the compounds described herein is quantified with the aid of a recombinant cell line. The cell is originally derived from a hamster ovary epithelial cell (Chinese Hamster Ovary, CHO K1, ATCC: American Type Culture Collection, VA 20108, USA).
An established chimera system in which the ligand-binding domains of human steroid hormone receptors are fused to the DNA-binding domain of the yeast transcription factor GAL4 is used in this CHO K1 cell line. The GAL4-steroid hormone receptor chimeras produced in this way are cotransfected and stably expressed with a reporter construct in the CHO cells.
To generate the GAL4-steroid hormone receptor chimeras, the GAL4 DNA binding domain (amino acids 1-147) from the vector pFC2-dbd (from Stratagene) is cloned with the PCR-amplified ligand-binding domains of the mineralocorticoid receptor (MR, amino acids 734-985), of the glucocorticoid receptor (GR, amino acids 443-777), of the progesterone receptor (PR, amino acids 680-933) and of the androgen receptor (AR, amino acids 667-919) into the vector pIRES2 (from Clontech). The reporter construct, which comprises five copies of the GAL4 binding site upstream of a thymidine kinase promoter, leads to expression of firefly-luciferase (Photinus pyralis) after activation and binding of the GAL4-steroid hormone receptor chimeras by the respective specific agonists aldosterone (MR), dexamethasone (GR), progesterone (PR) and dihydrotestosterone (AR).
The MR, GR, PR and AR cells are plated out in medium (Optimem, 2.5% FCS, 2 mM glutamine, 10 mM HEPES) in 96- (or 384- or 1536-) well microtiter plates on the day before the assay and are kept in a cell incubator (96% humidity, 5% v/v CO2, 37° C.). On the day of the assay, the substances to be tested are taken up in the abovementioned medium and added to the cells. About 10 to 30 minutes after addition of the test substances, the respective specific agonists of the steroid hormone receptors are added. After a further incubation time of 5 to 6 hours, the luciferase activity is measured with the aid of a video camera. The measured relative light units as a function of the substance concentration result in a sigmoidal stimulation curve. The IC50 values are calculated with the aid of the GraphPad PRISM computer program (Version 3.02).
(In general: A reporter such as luciferase makes a cellular process visible.)
In general, IC50 refers to the concentration that inhibits the measured activity by half. With `CCOc1nccc2c1C(c1ccc(C#N)cc1OC)C(C#N)=C(C(F)(F)F)N2` (stereo not drawn) [Example 33, 4-(4-Cyano-2-methoxyphenyl)-5-ethoxy-2-(trifluoromethyl)-1,4-dihydro-1,6-naphthyridine-3-carbonitrile], the IC50 stood at 0.035 µM.

For `CCOc1nccc2c1C(c1ccc(C#N)c3ccccc13)C(C(C)=O)=C(C)N2` (stereo not drawn) [Example 32, 4-(3-Acetyl-5-ethoxy-2-methyl-1,4-dihydro-1,6-naphthyridin-4-yl)-1-naphthonitrile], the 50% inhibitory concentration (IC50) came out at 0.004 µM.

As for `CCS(=O)(=O)Oc1nccc2c1C(c1cccc3c(=O)cc(C)oc13)C(C(C)=O)=C(C)N2` (stereo not drawn) [Example 10, 3-Acetyl-2-methyl-4-(2-methyl-4-oxo-4H-chromen-8-yl)-1,4-dihydro-1,6-naphthyridin-5-yl ethane-sulfonate], the IC50 stood at 0.075 µM.

Turning to `CCOc1nccc2c1C(c1ccc(C#N)cc1CC)C(C(C)=O)=C(C)N2` (stereo not drawn) [Example 24, 4-(3-Acetyl-5-ethoxy-2-methyl-1,4-dihydro-1,6-naphthyridin-4-yl)-3-ethylbenzonitrile], the half-inhibitory concentration (IC50) came to 0.031 µM.

For the compound `CCOc1ncc(C)c2c1C(c1ccc(C#N)cc1OC)C(C#N)=C(C)N2` (stereo not drawn) [Example 37, 4-(4-Cyano-2-methoxyphenyl)-5-ethoxy-2,8-dimethyl-1,4-dihydro-1,6-naphthyridine-3-carbonitrile], the 50% inhibitory concentration (IC50) is 0.073 µM.

On to `CCOc1nc(C)cc2c1C(c1ccc(C#N)cc1OC)C(C#N)=C(C)N2` (stereo not drawn) [Example 35, 4-(4-Cyano-2-methoxyphenyl)-5-ethoxy-2,7-dimethyl-1,4-dihydro-1,6-naphthyridine-3-carbonitrile], for which the IC50 is 0.122 µM.

Take `CCOc1nccc2c1C(c1ccc(C#N)cc1OC(F)(F)F)C(C(C)=O)=C(C)N2` (stereo not drawn) [Example 21, 4-(3-Acetyl-5-ethoxy-2-methyl-1,4-dihydro-1,6-naphthyridin-4-yl)-3-(trifluoromethoxy)benzonitrile]: the IC50 turned out to be 0.03 µM.

For `CCOc1nccc2c1C(c1cccc3c(=O)cc(C)oc13)C(C#N)=C(C)N2` (stereo not drawn) [Example 4, 5-Ethoxy-2-methyl-4-(2-methyl-4-oxo-4H-chromen-8-yl)-1,4-dihydro-1,6-naphthyridine-3-carbo-nitrite], the IC50 came out at 0.273 µM.

As to `CCOc1nccc2c1C(c1ccc(C#N)cc1OC)C(C#N)=C(C)N2` (stereo not drawn) [Example 25, 4-(4-Cyano-2-methoxyphenyl)-5-ethoxy-2-methyl-1,4-dihydro-1,6-naphthyridine-3-carbonitrile], the IC50 stood at 0.087 µM.
